In patent publication US5770570A, “Method of delivering a vasoactive intestinal polypeptide, an encapsulated vasoactive intestinal polypeptide, and a method of making the encapsulated vasoactive intestinal polypeptide” (priority 1995, dated 1998):
Where “and” joins values, the source holds several entries; their conditions need not be identical. Identical values can stand only once. Blank lines part the entries; values can stand above or below the substance they belong to. Ends that are not written are not given here. * marks the point of attachment. 125I = [125I]*

Tests used:
[1] = Release (leakage) of VIP from liposomes stored in buffer; format: physicochemical; settings: stored in buffer at 4° C. for 14 days
Method: The release of VIP from the liposomes was determined as follows.
The peptide release from liposomes containing (tyr^10 -^125 I)VIP, approximately 20,000 cpm, kept at 4° C. in 50 mM HEPES, pH 7.3, containing 0.02% […] was determined by centrifugation of aliquots of the suspension at 12,400×g for 15 minutes and measurement of radioactivity in the supernatants.

PG/PC/CH liposomes = assay: Binding of VIP by pre-formed lipid liposomes (PG/PC/CH); settings: for binding of radiolabeled VIP by liposomes, % of available peptide: liposomes 2.5-45.6 mM Pi, 0.42 nM peptide
Method: (§1) Unilaminar phospholipid liposomes were formed using phosphatidylcholine (PC) and phosphatidylglycerol (PG) purified from egg yolk (Sigma). The fatty acid composition of the phospholipids determined by Sigma was: (PC, C16:0), (35%; C18:0, 12%; C18:1, 31%; C18:2, 14%); (PG, C16:0, 30%, C18:0, 13%; C18:1, 30%; C18:2, 16%). The unilamellar liposomes were prepared by reverse-phase evaporation as disclosed in Szoka, Jr., F. and Papahadjopoulos (1978) Proc. Natl. Acad. Sci. USA 75, 4194-4198), from a mixture of PG/PC/CH(cholesterol) (molar ratio 1:4:5) or PC/CH (1:1) dissolved in chloroform.
Peptide was permitted to bind liposome surface in aqueous solution. In organic solvents as in Example I, the peptide will be expressed in as well as on the lipid membranes of liposomes.
The liposomes were the pelleted (12,000×g, 10 min; Beckman centrifuge MICROFUGE®). The supernatant was aspirated and the liposome-associatedradioactivity was measured at 70% efficiency (Beckman model 5500 gamma counter). There was minimal loss of the liposomes in the supernatant, because more than 90% of the inorganic phosphate present in the reaction mixture was recovered in the pellet.
The binding data was corrected for peptide adsorption by the reaction tubes determined in parallel incubations.
Dissociation and saturability data were analyzed by means of Kinetic and Enzfitter (Elsevier Biosoft).
The binding of the VIP to the liposome was determined as follows. Unilamellar lipid liposomes were prepared by reverse evaporation and assayed for binding of radiolabeled VIP, as described above. BSA was included in the assay diluent to saturate nonspecific polypeptide binding sites in the lipid liposomes and the polypropylene surface of the reaction tubes.
(§2) Values are means±s.d. Probe-binding was with pre-formed liposomes (2.3 mM Pi) and 100 nM CF or 0.2 nM (tyr^10 -^125 I)VIP mixed with 100 nM unlabeled peptide. Encapsulation was by making liposomes from lipid solutions (2.6 mM Pi) containing 2.5 μM CF or 1.7 nM (Tyr^10 -^125 I)VIP mixed with 2.5 μM unlabeled VIP. Free probes were removed by three washes with 50 mM HEPES, pH 7.3, containing 0.5% BSA. CF values were determined by fluorimetry after solubilization of liposomes, and VIP values, by measurement of liposome-associated radioactivity.
FIG. 5 illustrates the results of the competitive inhibition of binding of (Tyr^10-^125)VIP (0.26 nM) by the liposomes (2.4 mM Pi) by unlabeled VIP (10 nM-1 mM). Data are means±s.d expressed as % of available radiolabeled peptide. […]

PC/PG liposomes = assay: Binding of VIP by liposomes without cholesterol (PC/PG); settings: PC/PG liposomes (no cholesterol)
[2] = Encapsulation of probes by making liposomes in their presence (Table 1); format: physicochemical; settings: liposomes made from lipid solutions 2.6 mM Pi containing 2.5 μM probe
Method: as §2

[3] = Release of liposome-bound VIP by solvent treatments (Table 2); format: physicochemical; settings: twice 1 ml for 10 min, 23° C.
Method: Lipid liposomes (4 mM Pi) were permitted to bind (Tyr^10 -^125 I)VIP (1 nM), washed extensively to remove unbound radioactivity and then treated twice with 1 ml of the indicated solutions for 10 min (23° C.). Released radioactivity was determined in the pooled supernatant obtained by centrifugation. Values are % of initial liposome-bound radioactivity (76,300 CPM), corrected for peptide release in control incubations performed in 50 mM HEPES, pH 7.3 (4.2±3.4%).

[4] = test system: hamster check pouch microcirculation; assay: Untoward effects and leaky sites in check pouch microcirculation; format: in vivo; settings: i.v. infusion in hamsters
Method: (§3) The animals were kept on a heated pad throughout the duration of the experiment. Arterial blood pressure was recorded continuously using a pressure transducer and a strip-chart recorder (Model 7702B, Hewlett-Packard). The microcirculation of the hamster check pouch was visualized using intravital microscopy and clearance of fluorescein isothiocyanic-dextran (M.W.=70 RD; Sigma) from postcapillary venules and determined as described in W. G. Mayhan and I. Rubinstein, J. Appl. Physiol., 75, pp. 27-32 (1993).
(§4) The number of leaky sites in check pouch microcirculation was determined every minute throughout the duration of the experiments as disclosed in W. G. Mayhan, Supra. The data is expressed as means±SEM. Students t-test for unpaired observations was used to compare responses to vasoactive intestinal peptide. A p value<0.05 was considered to be significant.

PC/CH liposomes = assay: Binding of VIP by electrically neutral liposomes (PC/CH); settings: VIP 100 nM
Method: as §1
The binding of VIP (100 nM) by electrically neutral and negative liposomes prepared from PC/CH and PG/PC/CH, respectively, was compared. In each case, the levels of peptide binding increased within increasing concentration of the liposomes. The values of % VIP bound±s.d./μmol Pi were, PG/PC/CH liposomes, 26.2+3.4; PC/CH liposomes, 12.6±1.5. […] The inclusion of cholesterol, an agent that can be expected to decrease bilayer fluidity at the temperatures used in this study, as reported in Demel, R. A. and DeKruyff, B. (1976) Biochim. Biophys.

[5] = test system: male golden Syrian hamsters; assay: Hypotensive effect (mean arterial blood pressure) in anesthetized hamsters; format: in vivo, hamster
Method: The hamsters were first prepared by anesthetizing intravenously 6 mg of sodium pentobarbital per 100 g of body weight. A tracheostomy was then performed to facilitate spontaneous breathing. Supplemental anesthesia was administered intravenously as necessary at 2-4 mg/100 g body weight/hour. A femoral artery was cannulated for blood pressure monitoring. A femoral vein was cannulated for drug and florescent tracer administration.
as §3
In each hamster, 1 ml aliquots of increasing concentrations of VIP dissolved in 0.15M sodium chloride or encapsulated in liposomes (1 nmol VIP/0.12 μmol phospholipids) were infused intravenously for 7 minutes.
Mean arterial blood pressure was recorded before, during, and for 60 minutes after administration of each concentration of the peptide.
as §4
The effect on blood pressure was determined by measuring the magnitude of reduction in mean arterial blood pressure (MAP) as a function of time following infusion of VIP dissolved in saline or encapsulated in liposomes.

[6] = molecular target: (tyr^10 -^125 I)VIP (radioiodinated synthetic vasoactive intestinal polypeptide)
[7] = pre-formed liposomes 2.3 mM Pi, 100 nM CF or 0.2 nM tracer with 100 nM unlabeled VIP

binding of radiolabeled VIP by liposomes, % of available peptide (PG/PC/CH liposomes): up to 56.6%
binding of radiolabeled VIP by liposomes, % of available peptide (PG/PC/CH liposomes; listed as radiolabeled VIP): up to 60%
Substance: (tyr^10 -^125 I)VIP: VIP radioiodinated at tyrosine 10, used as tracer (HSDAVFTDNY(125I)TRLLRKQMAVKKYLNSILN-NH2)
leakage of (tyr10-125I)VIP from the liposomes [1]: < 2 % of available radioactivity

% VIP bound/μmole Pi (PC/PG liposomes): 24.9%
% VIP bound/μmol Pi (PC/CH liposomes): 12.6±1.5%
apparent binding capacity at saturating VIP concentrations (PG/PC/CH liposomes): 1 mol VIP/12.5 mol phospholipid
IC50 (PG/PC/CH liposomes; 0.26 nM tracer, liposomes 2.4 mM Pi, read-out: IC50, competitive inhibition of partitioning of (Tyr10-125I)VIP into liposomes): 560 µM
% VIP bound/μmol Pi (PG/PC/CH liposomes; VIP 100 nM, PG/PC/CH liposomes): 26.2 ± 3.4% and 26.2%
partition constant derived from the binding isotherm (PG/PC/CH liposomes; nominal value, neutral pH): 1400 M⁻¹
Binding (PG/PC/CH liposomes; [7]): 20.5 ± 1.0 nM
Substance: HSDAVFTDNYTRLLRKQMAVKKYLNSILN-NH2 (not fully specified (residue 10); printed as HSDAVFTDNYTRLLRKQMAVKKYLNSILN-NH2) [VIP, synthetic 28-amino acid neuropeptide; conventional VIP solution used as comparator]
Encapsulation [2]: 37.5 ± 5.0 nM
% VIP released ([3]; 1 mM HCl): 3.0 ± 3.5%
% VIP released ([3]; 1 mM NaOH): 15.9 ± 4.0%
% VIP released ([3]; 25 mM EDTA): 8.1 ± 10.0%
% VIP released ([3]; 1% SDS): 81.1 ± 9.6%
% VIP released ([3]; 1 M NaCl): 2.7 ± 3.0%
untoward effects during infusion [4]: did not display detectable untoward effects
decrease in MAP ([5]; 1 nmole per hamster): weak and transient decrease in MAP
time at which a significant decrease in MAP was observed ([5]; 1 nmole per hamster, i.v. infusion 7 minutes): 5 min
MAP values for treated animals (FIG. 2 legend, apparently baseline) ([5]; 1.0 nmole, 7 minutes i.v. infusion, n=5): 93.0 mm Hg
return of arterial blood pressure to pre-infusion baseline ([5]; 1 nmole, FIG. 2): 9 min
reversibility of the hypotensive effect ([5]; hamster, in vivo): fully reversible

Encapsulation [2]: 82.5 ± 7.5 nM
Binding (PG/PC/CH liposomes; [7]): 0.01 ± 0.001 nM
Binding, nM (PG/PC/CH liposomes; pre-formed liposomes 2.3 mM Pi, 100 nM CF or 0.2 nM tracer with 100 nM unlabeled VIP, listed as carboxyfluorescein): very small amounts
Substance: carboxyfluorescein [CF]

peptide hydrolysis (trichloroacetic acid-soluble radioactivity of (tyr^10 -^125 I)VIP) [6]: 80 % digested
Substance: trypsin from bovine pancreas (Sigma) (from UniProt P00760) (enzyme)
